Patent US5767142A, “Trisbenzimidazoles useful as topoisomerase I inhibitors” (Rutgers, The State University of New Jersey, priority 1996, dated 1998)
Entries after “also recorded” stand apart in the source; their conditions may differ. Where two headings read alike, the source gives them in different places.

Assays:
[1] = test system: CPT-K5 cells (camptothecin-resistant variant of RPMI 8402); assay: MTT cytotoxicity assay, camptothecin-resistant CPT-K5; type: cell-based, human
Description: (§1) The cytotoxicity was determined using the as MTT-microtiter plate tetrazolinium cytotoxicity assay (MTA) following the procedures of F. Denizot et al., J. Immunol. […] The cytotoxicity assay was performed using 96-well microtiter plates. Cells were grown in suspension at 37° C. in 5% CO2 and maintained by regular passage in RPMI medium supplemented with 10% heat inactivated fetal bovine serum, L-glutamine (2 mM), penicillin (100 U/ml), and streptomycin (0.1 mg/ml). For determination of IC50, cells were exposed continuously with varying concentrations of drug concentrations and MTT assays were performed at the end of the fourth day.

[2] = test system: human epidermoid carcinoma KB3-1 cell line; assay: MTT cytotoxicity assay, KB3-1; type: cell-based; conditions: KB 3-1, 96 h, 4 days continuous drug exposure
Description: as §1
(§2) These cells were grown as monolayer cultures at in 5% CO2 and maintained by regular passage in Dulbecco's minimal essential medium supplemented with 10% heat inactivated fetal bovine serum. KBV-1 cells were similarly maintained except they were grown in the presence of 1 μg/ml vinblastine.

topoisomerase I = conditions: literature; cited from earlier work
[3] = test system: human lymphoblast RPMI 8402 cells; assay: MTT cytotoxicity assay, RPMI 8402; type: cell-based; conditions: Homo sapiens, RPMI 8402, 96 h; 4 days continuous drug exposure; read-out: Cytotoxicity IC50, RPMI
Description: as §1

[4] = cited from earlier work
[5] = test system: KBV-1 cells (multidrug-resistant variant of KB3-1, overexpress MDR1); assay: MTT cytotoxicity assay, multidrug-resistant KBV-1; type: cell-based, human; conditions: Homo sapiens, KB-V1, 96 h; 4 days continuous drug exposure; read-out: Cytotoxicity IC50, KBV-1
Description: as §1, §2

[6] = target: T1, calf thymus topoisomerase I (Bos taurus, UniProt A0AAA9TV68); assay: Topoisomerase I-mediated DNA cleavage assay (calf thymus topoisomerase I, plasmid YEpG); type: biochemical
T1 construct: plasmid YEpG DNA cleavage assay
T1 sequence (A0AAA9TV68 2-769): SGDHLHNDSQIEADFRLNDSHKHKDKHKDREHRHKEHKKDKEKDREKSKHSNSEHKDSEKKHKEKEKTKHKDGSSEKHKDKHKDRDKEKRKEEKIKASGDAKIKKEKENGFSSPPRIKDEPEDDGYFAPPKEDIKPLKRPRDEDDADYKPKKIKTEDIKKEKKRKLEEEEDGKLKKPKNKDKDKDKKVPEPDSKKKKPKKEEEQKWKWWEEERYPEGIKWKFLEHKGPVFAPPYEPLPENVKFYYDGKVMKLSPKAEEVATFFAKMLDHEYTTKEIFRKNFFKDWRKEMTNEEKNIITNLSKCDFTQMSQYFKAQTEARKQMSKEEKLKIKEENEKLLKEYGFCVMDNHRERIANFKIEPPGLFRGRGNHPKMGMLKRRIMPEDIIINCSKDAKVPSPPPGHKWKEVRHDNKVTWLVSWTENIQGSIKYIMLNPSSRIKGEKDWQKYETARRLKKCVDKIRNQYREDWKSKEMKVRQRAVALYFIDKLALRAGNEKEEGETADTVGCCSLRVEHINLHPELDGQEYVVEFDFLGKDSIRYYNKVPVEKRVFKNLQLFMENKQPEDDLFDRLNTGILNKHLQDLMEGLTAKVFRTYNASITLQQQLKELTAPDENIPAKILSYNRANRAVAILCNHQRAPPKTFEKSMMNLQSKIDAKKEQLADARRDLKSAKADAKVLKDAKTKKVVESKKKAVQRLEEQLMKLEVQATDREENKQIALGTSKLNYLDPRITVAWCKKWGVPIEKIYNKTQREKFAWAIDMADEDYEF
Source text: DNA topoisomerase I was purified from calf thymus gland as reported previously by B. D. Halligan et al., J. Biol. Chem., 260, 2475 (1985). Plasmid YEpG was also purified by the alkali lysis method followed by phenol deproteination and CsCl/ethidium isopycnic centrifugation as described by T. Mariatis et al., Molecular Cloning, A Laboratory Manual, Cold Spring Harbor Labs, NY (1982) at pages 149-185. The end-labeling of the plasmid was accomplished as previously described by L. F. Liu et al., J. Biol. Chem., 258, 15365 (1983). The cleavage assays were performed as previously reported by A. Y. Chen et al., Cancer Res., 53, 1332 (1993). Human topoisomerase was isolated as a recombinant fusion protein using a T7 expression system.
^b Topoisomerase I cleavage values are reported as REC, Relative
Effective Concentration, i.e. concentrations relative to Hoechst 33342,
whose value is arbitrarily assumed as 1, that are able to produce the sam
cleavage on the plasmid DNA in the presence of calf thymus topoisomerase
I. Cleavage is calculated from the intensity of the strongest Hoechst

[7] = test system: human epidermoid carcinoma KB3-1 cell line; conditions: previously reported; read-out: IC50 of Hoechst 33342 in KB 3-1 cells; cited from earlier work
[8] = test system: KBV-1 cells (multidrug-resistant variant of KB3-1, overexpress MDR1); conditions: cited from earlier work

In the case of `CCOc1ccc(-c2nc3cc(-c4nc5cc(N6CCN(C)CC6)ccc5[nH]4)ccc3[nH]2)cc1` [Hoechst 33342, 2'-(4-ethoxyphenyl)-5-(4-methyl-1-piperazinyl)-2,5'-bi-1H-benzimidazole, reference compound], the “Cytotoxicity against CPT-K5 cells (in words)” value [1] is reported as “effective against camptothecin-resistant CPT-K5 cells”, the “Relative resistance (ratio of IC50 values of resistant versus drug sensitive cell line)” value ([1]; CPT-K5 versus RPMI 8402, 5760 min) is reported as “approximately 30 fold” and the IC50 ([1]; Homo sapiens, CPT-K5, 96 h, 4 days continuous drug exposure, read-out: Cytotoxicity IC50, CPT-K5) is reported as 0.9 µM. The IC50 [2] was 0.01 µM, the “Inhibition of topoisomerase I (in words)” value (topoisomerase I) was “is an inhibitor of topoisomerase I; also recorded: traps the reversible cleavable complex derived from DNA and topoisomerase I and produces a limited number of highly specific single-strand DNA breaks” and the IC50 [3] was 0.03 µM. The “Protonation at physiological pH (in words)” value [4] was “extensively protonated at physiological pH”, the IC50 [5] was 1.2 µM and the “Topo I-mediated DNA cleavage (REC, Relative Effective Concentration)” value [6] was 1. The IC50 [7] was about 0.009 µM, the “Difference of IC50 between KB 3-1 and KB V-1 cells (in words)” value ([8]; as reported by A. Y. Chen et al., Adv. Pharmacol., 245, 29B (1994)) was “differs by approximately two-orders of magnitude” and the “less cytotoxic to KB V-1 cells than to KB 3-1 cells” value ([8]; previously reported, KB V-1 overexpress MDR1) was “approximately 130 fold”. The “Efficacy against tumor cell lines which overexpress MDR1 (in words)” value ([8]; previously reported) was “not effective against tumor cell lines which overexpress MDR1”.
